Where two headings read alike, the source gives them in different places.
Columns and labels:
[1] = DPPH radical-scavenging assay; assay type: biochemical; settings: 30 min in the dark, 517 nm; read-out: IC50 against DPPH•
Experimental: (§1) The stock solutions of the reference antioxidants (ascorbic acid, Trolox, EDTA-Na2) and compounds 3a–j were prepared by dissolving the solid powders in DMSO, obtaining 2 mM stock solutions. Following this, an additional set of solutions (0.2 mM) for each compound was obtained by dilution with DMSO. Absorption spectra of the tested compounds covering the range from 400 nm to 800 nm were recorded, indicating no absorption peaks near the wavelengths employed in the experiments. All measurements in the presented assays were made against blank samples. To quantify the activity of the compounds 3a–j, for the antiradical assays (DPPH and ABTS) and ferrous ion chelation, IC50 was calculated using Equation (1), while for the electron transfer assays (TAC, RP, FRAP and CUPRAC), the reference number of mole equivalent activity for each compound was calculated using Equation (2). (1) radical scavenging (%)=control absorbance−sample absorbance/control absorbance×100 (2) equivalents of control=sample absorbance/control absorbance
The DPPH˙ (2,2-diphenyl-1-picrylhydrazyl) radical-scavenging assay, initially reported by Brand-Williams et al., relies on transferring a hydrogen atom from the antioxidant substrate being analyzed to the stable violet radical of DPPH˙. This action converts DPPH˙ into a nonradical stable yellow compound. The reduction in absorbance of the DPPH˙ at λ = 517 nm corresponds to the quantity of neutralized reagent. To perform the DPPH assay, we took 50, 75, 100, 125, and 150 µL of each sample from their 0.2 mM stock solutions, then we adjusted the volumes with DMSO to ensure all samples reached a uniform final volume. These solutions were mixed with 1 mL of DPPH reagent and incubated in the dark for 30 min, as presented in literature reports.

[2] = Reducing power (RP) assay; assay type: biochemical; settings: 50 °C, 20 min, pH 6.6
Experimental: as §1
In the reducing power (RP) assay, the tested compounds performed the reduction of ferric ions from potassium ferricyanide, forming ferrocyanide, which gives a blue complex. The protocol followed is an adaptation of previously reported methodologies. In glass test tubes, 1000 µL of solutions containing compounds and standards measured from the 0.2 mM stock solutions were mixed with 400 µL of phosphate buffer (0.2 M, pH = 6.6) and 400 µL of K3[Fe(CN)6] solution (1% w/v). The tubes were sealed and incubated for 20 min in a water bath at 50 °C. After cooling to room temperature, 500 µL of trichloroacetic acid (10% w/w) was added to all test tubes The resulting mixtures were left for 0.5 h at room temperature. Subsequently, 250 µL of the resulting solutions were mixed with 140 µL of FeCl3 solution (0.1% w/v) and 1000 µL of distilled water, and the absorbance of the resulting solutions was determined at λ = 695 nm.

[3] = test system: normal human foreskin fibroblasts (BJ); experiment: Alamar Blue cytotoxicity assay, BJ cells; assay type: cell-based; settings: for IC50: 48 h exposure, Alamar Blue
Experimental: (§2) BJ cells were maintained in Dulbecco’s modified Eagle’s medium (DMEM) with low glucose (1 g/L), while the A549 cells were seeded in DMEM with high glucose (5 g/L). All media were supplemented with 10% fetal bovine serum (FBS) and 1% Penicillin/Streptomycin. […] Cellular media were refreshed every other day. Cells were either subcultured or used in experiments once they reached a confluency of 80–90%.
(§3) The cytotoxicity of the synthesized compounds was evaluated by Alamar Blue (AB) assays performed on both cell lines, A549 and BJ, after a 48 h exposure, as previously reported.
(§4) Briefly, approximately 7000 A549 cells and 4000 normal BJ cells were seeded in 100 µL cellular media in 96-well plates to achieve a confluency of 70–80% at the end of the experiment and left to attach overnight before exposure. […] Post-exposure, the media were removed, and the AB assay was performed, with cells being incubated with a 200 µM solution of resazurin for 4 h. The obtained fluorescence was measured at λexcitation = 530/25; λemission = 590/35.
(§5) The experiments included three biological replicates, each one including three technical replicates. The negative control (NC) consisted of cells exposed to a cell culture medium containing 0.2% DMSO and was used for data normalization (100%).

[4] = CUPRAC (CUPric-Reducing Antioxidant Capacity) assay; assay type: biochemical; settings: 30 min, 450 nm
Experimental: as §1
The electron-donating capacity of compounds was assessed using the CUPRAC (CUPric-Reducing Antioxidant Capacity) method. The protocol for this assay is a modification of the reports of Alam et al., Özyürek et al., and Apak et al.. Volumes of 250 µL of CuCl2 10 mM, 1 mL of ammonium acetate buffer 1 M, and 250 µL of 7.5 mM neocuproine in ethanol were mixed with 125 µL of samples and reference compound solutions (0.2 mM). The mixtures were shaken for 30 min in the dark; after that, their absorbance was determined spectrophotometrically at λ = 450 nm.

[5] = ABTS radical cation decolorization assay; assay type: biochemical; settings: 10 min, pH 7.4, 734 nm; read-out: IC50 against ABTS•+
Experimental: as §1
The decolorization assay of the green ABTS^•+ (2,2′-azinobis-(3-ethylbenzothiazoline-6-sulfonic acid) to ABTS, based on the report of Re et al., was conducted following our group’s published report. The chemical stability of the ABTS^•+ reagent prior to use was checked at λ = 734 nm over one hour, ensuring a consistent absorption (approximately equal to 0.7). The reagent was prepared in potassium phosphate buffer (0.1 M, pH = 7.4) and activated overnight using MnO2 [17]. In all cuvettes, we added 100 μL of the tested compound solutions (0.2 mM) in increasing concentrations up to 200 µL and 2000 µL of the ABTS^•+ reagent. The resulting mixtures were thoroughly shaken for 10 min at room temperature, in the absence of light. The optical absorbance of the resulting mixtures was then measured by spectrophotometry at λ = 734 nm.

[6] = test system: human pulmonary malignant cells (A549); experiment: Alamar Blue cytotoxicity assay, A549 cells; assay type: cell-based; settings: for IC50: 48 h exposure, Alamar Blue, read-out: IC50 (±SD) A549; for Selectivity Index: ratio between the calculated IC50 on BJ and A549 cells, 48 h
Experimental: as §2, §3, §4, §5

[7] = Ferrous ion chelation assay (ferrozine); assay type: biochemical; set-up: key: - represents negligible activity
Experimental: as §1
To evaluate the ability of compounds to chelate ferrous ions, an assay was performed using an adaptation of Dinis et al.’s initial report. The solutions of the tested compounds (2 mM) were mixed well with 500 µL of FeSO4 (0.125 mM), and 500 µL of ferrozine 0.315 mM. After 10 min, the absorbance of the samples was determined spectrophotometrically at λ = 562 nm. EDTA-Na2 was used as a positive control, due to its exceptional ion chelation properties.

[8] = Total Antioxidant Capacity (TAC) assay; assay type: biochemical; settings: 95 °C, 1.5 h, 695 nm
Experimental: as §1
The Total Antioxidant Capacity (TAC) assay was conducted following the methodology outlined in our previous publication, which was based on initial reports from the literature. A volume of 10 mL of the reagent (0.6 M H2SO4, 28 mM Na3PO4 and 4 mM (NH4)6Mo7O24) and 1000 µL of the compound and standard solutions dispensed from the 2 mM stock solutions were mixed in sealed glass test tubes and incubated in a water bath at 95 °C for 1.5 h. After cooling the test tubes to room temperature, 1000 µL of each solution was diluted with 1000 µL of water. The absorbance of the solutions was then measured at λ = 695 nm.

[9] = Ferric-Reducing Antioxidant Potential (FRAP) assay; assay type: biochemical; settings: pH 3.6, 593 nm
Experimental: as §1
The Ferric-Reducing Antioxidant Potential (FRAP) assay relies on the transfer of an electron from the antioxidant being assessed to Fe^3+, resulting in its conversion to Fe^2+. The resulting Fe^2+ ions are then chelated by 2,4,6-tripyridyl-s-triazine, giving a blue-colored complex, with an absorption maximum at λ = 593 nm. A 500 µL amount of the solutions (0.2 mM) of compounds and reference compounds was mixed with 600 µL FRAP reagent and 1200 µL acetate buffer (0.3 M, pH = 3.6), according to previous reports. The resulting solutions were mixed well in the dark, and their absorbance was measured spectrophotometrically.

Row | SMILES | IC50 [1] | RP Eq Ascorbic Acid [2] | RP Eq Trolox [2] | toxicity on BJ cells ([3]; 48 h, result in words) | IC50 [3] | CUPRAC Eq Trolox [4] | IC50 [5] | IC50 [6] | Selectivity Index [6] | ferrous ion chelation percent ([7]; 0.25 µM) | ferrous ion chelation percent ([7]; 0.5 µM) | ferrous ion chelation percent ([7]; 1 µM) | ferrous ion chelation percent ([7]; 1.5 µM) | ferrous ion chelation percent ([7]; 2 µM) | TAC Eq Ascorbic Acid [8] | FRAP Eq Trolox [9] | IC50 ([3]; Homo sapiens, Fibroblast) | IC50 ([6]; Homo sapiens, A549)
1 | O=C1O[C@H]([C@@H](O)CO)C(O)=C1O [Ascorbic acid, reference compound] | 53.5 µM |  |  |  |  |  |  |  |  |  |  |  |  |  |  |  |  | 
2 | Cc1nc(-c2ccc(O)c(O)c2)cs1 [Compound 3a] | 51.3 µM | 1.73 Eq Ascorbic Acid | 1.44 Eq Trolox | no significant toxicity on BJ cells | > 100 µM | 3.17 Eq Trolox | 12 µM | 31.5 µM | >3.17 | - | - | - | - | - | 0.38 Eq Ascorbic Acid | 0.95 Eq Trolox |  | 
3 | Oc1ccc(-c2csc(-c3ccccc3)n2)cc1O [Compound 3b] | 50.2 µM | 1.60 Eq Ascorbic Acid | 1.33 Eq Trolox |  | 78.6 µM | 2.27 Eq Trolox | 14 µM | 8.91 µM | 8.82 | - | - | - | - | - | 1.00 Eq Ascorbic Acid | 1.07 Eq Trolox |  | 
4 | Oc1ccc(-c2csc(-c3ccc(Cl)cc3)n2)cc1O [Compound 3c] | 47.8 µM | 1.47 Eq Ascorbic Acid | 1.22 Eq Trolox |  | 35.8 µM | 2.38 Eq Trolox | 15.7 µM | 8.16 µM | 4.39 | - | - | - | - | - | 0.83 Eq Ascorbic Acid | 1.10 Eq Trolox |  | 
5 | Oc1ccc(-c2csc(-c3ccc(Br)cc3)n2)cc1O [Compound 3d, 4-(2-(4-bromophenyl)thiazol-4-yl)benzene-1,2-diol] | 48.3 µM | 1.63 Eq Ascorbic Acid | 1.35 Eq Trolox |  |  | 2.62 Eq Trolox | 12.6 µM |  | 5.66 | - | - | - | - | - | 0.71 Eq Ascorbic Acid | 1.09 Eq Trolox | 34.4 µM | 6.08 µM
6 | Cc1cccc(-c2nc(-c3ccc(O)c(O)c3)cs2)c1 [Compound 3e, 4-(2-(m-tolyl)thiazol-4-yl)benzene-1,2-diol] | 46.8 µM | 1.64 Eq Ascorbic Acid | 1.37 Eq Trolox |  |  | 3.13 Eq Trolox | 13.9 µM |  | 7.23 | - | - | - | - | - | 0.91 Eq Ascorbic Acid | 1.07 Eq Trolox | 46.8 µM | 6.46 µM
7 | COc1cc(-c2nc(-c3ccc(O)c(O)c3)cs2)cc(OC)c1OC [Compound 3f, 4-(2-(3,4,5-trimethoxyphenyl)thiazol-4-yl)benzene-1,2-diol] | 54.6 µM | 1.75 Eq Ascorbic Acid | 1.46 Eq Trolox |  |  | 3.05 Eq Trolox | 13.4 µM |  | 9.43 | - | - | - | - | - | 1.22 Eq Ascorbic Acid | 1.06 Eq Trolox | 82.6 µM | 8.76 µM
8 | O=C([O-])CN(CCN(CC(=O)[O-])CC(=O)O)CC(=O)O.[Na+].[Na+] [EDTA–Na2, EDTA-Na2, reference compound] |  |  |  |  |  |  |  |  |  | 47.21% | 55.24% | 73.41% | 86.52% | 96.20% |  |  |  | 
9 | Cc1c(C)c2c(c(C)c1O)CCC(C)(C(=O)O)O2 (stereo not drawn) [Trolox, reference compound] | 38.1 µM |  |  |  |  |  | 15.9 µM |  |  |  |  |  |  |  |  |  |  | 

From publication PMC11351550, “Synthesis, Cytotoxicity and Antioxidant Activity Evaluation of Some Thiazolyl–Catechol Compounds” (Antioxidants, 2024)
